Results on 4 molecules are retold here after PMC10787893, “Expression and characterization of the new antimicrobial peptide AP138L-arg26 anti Staphylococcus aureus” (Applied Microbiology and Biotechnology, 2024).

Values after ≈ are worked out from the molar mass of the structure shown. Where a name gives a salt, the structure may show the parent alone. Read-outs that look alike come from different tables or passages of the source.

The subject of assay [1] is S. aureus CVCC 546. To be noted: for FIC: FIC = MICc/MICa; for MICa: MIC of peptide/antibiotic alone, three parallel experiments.
Experimental: The synergistic effects of AP138L-arg26 with different antibiotics were evaluated using a checkerboard assay. The synergistic effect was calculated using the FICI as follows: FICI = FIC of AP138L-arg26 + FIC of antibiotic; FIC = MICc/MICa, where MICc is the MIC of the peptide and antibiotic in combination, and MICa is the MIC of the peptide/antibiotic alone (Blier et al. [2010]). Three parallel experiments were performed for each group. The efficacy of combination therapy was defined as FICI ≤ 0.5, 0.5 < FICI ≤ 1, 1 < FICI ≤ 4, and FICI > 4 indicating synergy, addition, no difference, and antagonism, respectively.
Assay [2] concerns S. aureus CVCC 546. Nature of the assay: Growth curve of S. aureus. To be noted: AP138L-arg26 8 µg/mL (2 × MIC), ceftiofur sodium 0.25 µg/mL (1/8 MIC), alone or combined; 1 × 10^5 CFU/mL. The assay is classed as cell-based, Staphylococcus aureus. The protocol:
Samples were taken during the logarithmic growth of S. aureus and diluted to 1 × 10^5 CFU/mL (Delpech et al. [2019]). Different concentrations of AP138L-arg26, ceftiofur sodium, or a combination of them with an equal volume of bacteria were added to a 96-well microplate. The growth curves were recorded using a fully automatic growth curve recording instrument.

In assay [3] the test system is Streptococcus agalactiae CAU-FRI-2022-01. Nature of the assay: MIC and MBC, broth microdilution. The assay is classed as cell-based. To be noted: Streptococcus agalactiae, CAUFRI202201. Here is the method: (§1) To determine the MIC values of AP138L-arg26, we used the broth microdilution technique as previously described (Andrews. [2001]; Wiegand et al. [2008]). In brief, AP138L-arg26 peptide were diluted from 1280 to 2.5 µg/mL and added to a 96-cells plate with 10 µL per well. The bacteria in the logarithmic stage were diluted to 10^5 CFU/mL with 90 µL per well. […] The MBC method was also based on the CLSI 2021 guidelines.
On the technique in general: Dilution methods test growth across graded concentrations, often in twofold steps.

The subject of assay [4] is Staphylococcus aureus ATCC 43300. In words: MIC and MBC, broth microdilution. The class given is cell-based. Conditions: Staphylococcus aureus, ATCC43300. Here is the method:
as §1

Assay [5] relates to Staphylococcus aureus CVCC 546. In words: MIC and MBC, broth microdilution. Conditions: Staphylococcus aureus, CVCC546. The class given is cell-based. The protocol: as §1
Assay [6] concerns Staphylococcus epidermidis ATCC 35984. In words: MIC and MBC, broth microdilution. To be noted: Staphylococcus epidermidis, ATCC35984. The class given is cell-based. Here is the method:
as §1

Assay [7] has as its system Streptococcus agalactiae CAU-FRI-2022-02. Nature of the assay: MIC and MBC, broth microdilution. The assay is classed as cell-based. To be noted: Streptococcus agalactiae, CAUFRI202202. The protocol:
as §1

Assay [8] has as its system Staphylococcus aureus E48. In words: MIC and MBC, broth microdilution. The class given is cell-based. Conditions: Staphylococcus aureus, E48. Here is the method:
as §1

Assay [9] has as its system Staphylococcus aureus ATCC 25923. In words: MIC and MBC, broth microdilution. The assay is classed as cell-based. To be noted: Staphylococcus aureus, ATCC25923. Here is the method:
as §1

Assay [10] relates to Staphylococcus aureus CAAS-FRI-2023-01. Nature of the assay: MIC and MBC, broth microdilution. The assay is classed as cell-based. To be noted: Staphylococcus aureus. The protocol:
as §1

The test system of assay [11] is Streptococcus agalactiae ATCC 13813. In words: MIC and MBC, broth microdilution. The class given is cell-based. Conditions: Streptococcus agalactiae, ATCC13813. Here is the method:
as §1

Assay [12] concerns Staphylococcus aureus CAAS-FRI-2023-02. In words: MIC and MBC, broth microdilution. The assay is classed as cell-based. Conditions: Staphylococcus aureus. The protocol: as §1
The subject of assay [13] is Staphylococcus epidermidis ATCC 12228. In words: MIC and MBC, broth microdilution. The assay is classed as cell-based. Conditions: Staphylococcus epidermidis, ATCC12228. The protocol:
as §1

The test system of assay [14] is Streptococcus dysgalactiae CVCC 3938. In words: MIC and MBC, broth microdilution. The class given is cell-based. To be noted: Streptococcus dysgalactiae, CVCC3938. Here is the method: as §1
Another assay deals with S. aureus ATCC 43300. Nature of the assay: Post-antibiotic effect (PAE) assay. The assay is classed as cell-based, Staphylococcus aureus. Conditions: PAE = T − C. From the text: The method of PAE of AP138L-arg26 against MRSA ATCC 43300 or S. aureus CVCC 546 was described previously (Wang et al. [2018]). The formula is PAE = T − C (T is the time required for the number of colonies in the sample treatment group to increase by tenfold, and C is the time required for the untreated group).

Setting [15] is: 99.99% of bacteria killed, plated on MHA, read-out: MBC.
[16] abbreviates: broth microdilution, 10^5 CFU/mL, 37 °C, 18 h, read-out: MIC.

`CC1(C)S[C@@H]2[C@H](NC(=O)[C@H](N)c3ccccc3)C(=O)N2[C@H]1C(=O)O` [Ampicillin]: the FIC in the assay on S. aureus CVCC 546 [1] (combination AP138L-arg26-ampicillin) turned out to be 0.0625. Further, the MICc in the assay on S. aureus CVCC 546 [1] (in combination AP138L-arg26-ampicillin) stood at 0.0078 µg/mL.
With `CO/N=C(\C(=O)N[C@@H]1C(=O)N2C(C(=O)[O-])=C(CSC(=O)c3ccco3)CS[C@H]12)c1csc(N)n1.[Na+]` [Ceftiofur sodium, ceftiofur sodium], in the assay with S. aureus CVCC 546 [1] (combination AP138L-arg26-ceftiofur sodium), the FIC is given as 0.25. Also, in the assay with S. aureus CVCC 546 [1] (in combination AP138L-arg26-ceftiofur sodium), the MICc worked out at 0.25 µg/mL. Moreover, in the assay on S. aureus CVCC 546 [2], the “effect on the growth of S. aureus CVCC 546” value is on record as “little effect on the growth”.
As to `[H]/N=C(/N)N[C@H]1[C@H](O)[C@@H](O)[C@H](O[C@@H]2O[C@@H](C)[C@](O)(C=O)[C@H]2O[C@@H]2O[C@@H](CO)[C@H](O)[C@@H](O)[C@@H]2NC)[C@@H](N/C(N)=N\[H])[C@@H]1O` [Streptomycin sulfate], in the assay on S. aureus CVCC 546 [1] (combination AP138L-arg26-Streptomycin sulfate), the FIC is recorded as 0.5. Moreover, the MICa in the assay with S. aureus CVCC 546 [1] is reported as 1 µg/mL. The MICc in the assay on S. aureus CVCC 546 [1] (in combination AP138L-arg26-Streptomycin sulfate) came out at 0.5 µg/mL.
For orientation: MBC means the lowest tested concentration that kills the bacteria rather than only halting them. One may read the MIC as the least concentration at which growth counts as inhibited. In the case of `CN[C@H](CC(C)C)C(=O)N[C@H]1C(=O)N[C@@H](CC(N)=O)C(=O)N[C@H]2C(=O)N[C@H]3C(=O)N[C@H](C(=O)N[C@H](C(=O)O)c4cc(O)cc(O)c4-c4cc3ccc4O)[C@H](O)c3ccc(c(Cl)c3)Oc3cc2cc(c3O[C@@H]2O[C@H](CO)[C@@H](O)[C@H](O)[C@H]2O[C@H]2C[C@](C)(N)[C@H](O)[C@H](C)O2)Oc2ccc(cc2Cl)[C@H]1O` [vancomycin, reference compound], the MICa in the assay with S. aureus CVCC 546 [1] stood at 1 µg/mL. For the same molecule, the MBC in [3] (setting [15]) is 8 µg/mL (≈ 5.52 µM); in assay [4] (setting [15]), 1 µg/mL (≈ 0.69 µM); in assay [5] (setting [15]), 1 µg/mL (≈ 0.69 µM); in assay [6] (setting [15]), 4 µg/mL (≈ 2.76 µM); in assay [7] (setting [15]), 4 µg/mL (≈ 2.76 µM); in assay [8] (setting [15]) it was 8 µg/mL (≈ 5.52 µM). Also, the MBC in assay [9] (setting [15]) was found to be 2 µg/mL (≈ 1.38 µM); in assay [10] (setting [15]), 2 µg/mL (≈ 1.38 µM); in [11] (setting [15]) it was 4 µg/mL (≈ 2.76 µM); in [12] (setting [15]) it was 8 µg/mL (≈ 5.52 µM); in assay [13] (setting [15]) it was 4 µg/mL (≈ 2.76 µM); in assay [14] (setting [15]) it was 2 µg/mL (≈ 1.38 µM). Moreover, the MIC in assay [3] (setting [16]) turned out to be 2 µg/mL (≈ 1.38 µM); in assay [4] (setting [16]) it was 1 µg/mL (≈ 0.69 µM); in assay [5] (setting [16]) it was 1 µg/mL (≈ 0.69 µM); in assay [6] (setting [16]), 2 µg/mL (≈ 1.38 µM); in assay [7] (setting [16]), 2 µg/mL (≈ 1.38 µM); in [8] (setting [16]), 1 µg/mL (≈ 0.69 µM). Also, the MIC stood at 1 µg/mL (≈ 0.69 µM) in assay [9] (setting [16]); 1 µg/mL (≈ 0.69 µM) in assay [10] (setting [16]); 2 µg/mL (≈ 1.38 µM) in assay [11] (setting [16]); 2 µg/mL (≈ 1.38 µM) in [12] (setting [16]); 2 µg/mL (≈ 1.38 µM) in assay [13] (setting [16]); 2 µg/mL (≈ 1.38 µM) in assay [14] (setting [16]). Moreover, the PAE with S. aureus ATCC 43300 (1 × MIC) was 0.27 h; in the assay on S. aureus ATCC 43300 (2 × MIC), 0.45 h; with S. aureus ATCC 43300 (4 × MIC) it was 1.18 h.
